Assay results taken from patent US20220356174A1, “PYRIDIN-2-ONE COMPOUNDS USEFUL AS SMARCA2 ANTAGONISTS” (Epizyme, Inc., priority 2018, published 2022).
Like-named read-outs stand apart in the source and are kept apart here.

Columns and labels:
A549 cells [1] = assay: High-throughput proliferation (HTP) assay for A549 cells (CellTiter-Glo, 7 days); assay type: cell-based; conditions: Homo sapiens, 168 h, read-out: A549 SMARCA2 IC50
Method in brief: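 Seven-day growth of A549 (62.5 cells/well, F12K with 10% HI-FBS, 37° C.) with compound, read by CellTiter-Glo ATP luminescence. Percent inhibition scaled between DMSO wells and 10 μM Doxorubicin wells, then fitted for EC50 and IC50.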

[2] = molecular target: T1, FL-SMARCA2 (full-length human SMARCA2 isoform 1) (Homo sapiens, UniProt P51531); assay: SMARCA2 ATPase activity assay (ADP-Glo, chicken mononucleosome substrate); assay type: biochemical; conditions: ATPase assay, enzyme 5 nM, ATP 250 uM, chicken mononucleosome 10 nM, 30 min preincubation
T1 construct: FLAG tag (YKDDDDK) (C); made in house; host or cells: Sf21 insect cells (baculovirus, pFastBacI)
T1 sequence (P51531 with tags, fused parts or gaps): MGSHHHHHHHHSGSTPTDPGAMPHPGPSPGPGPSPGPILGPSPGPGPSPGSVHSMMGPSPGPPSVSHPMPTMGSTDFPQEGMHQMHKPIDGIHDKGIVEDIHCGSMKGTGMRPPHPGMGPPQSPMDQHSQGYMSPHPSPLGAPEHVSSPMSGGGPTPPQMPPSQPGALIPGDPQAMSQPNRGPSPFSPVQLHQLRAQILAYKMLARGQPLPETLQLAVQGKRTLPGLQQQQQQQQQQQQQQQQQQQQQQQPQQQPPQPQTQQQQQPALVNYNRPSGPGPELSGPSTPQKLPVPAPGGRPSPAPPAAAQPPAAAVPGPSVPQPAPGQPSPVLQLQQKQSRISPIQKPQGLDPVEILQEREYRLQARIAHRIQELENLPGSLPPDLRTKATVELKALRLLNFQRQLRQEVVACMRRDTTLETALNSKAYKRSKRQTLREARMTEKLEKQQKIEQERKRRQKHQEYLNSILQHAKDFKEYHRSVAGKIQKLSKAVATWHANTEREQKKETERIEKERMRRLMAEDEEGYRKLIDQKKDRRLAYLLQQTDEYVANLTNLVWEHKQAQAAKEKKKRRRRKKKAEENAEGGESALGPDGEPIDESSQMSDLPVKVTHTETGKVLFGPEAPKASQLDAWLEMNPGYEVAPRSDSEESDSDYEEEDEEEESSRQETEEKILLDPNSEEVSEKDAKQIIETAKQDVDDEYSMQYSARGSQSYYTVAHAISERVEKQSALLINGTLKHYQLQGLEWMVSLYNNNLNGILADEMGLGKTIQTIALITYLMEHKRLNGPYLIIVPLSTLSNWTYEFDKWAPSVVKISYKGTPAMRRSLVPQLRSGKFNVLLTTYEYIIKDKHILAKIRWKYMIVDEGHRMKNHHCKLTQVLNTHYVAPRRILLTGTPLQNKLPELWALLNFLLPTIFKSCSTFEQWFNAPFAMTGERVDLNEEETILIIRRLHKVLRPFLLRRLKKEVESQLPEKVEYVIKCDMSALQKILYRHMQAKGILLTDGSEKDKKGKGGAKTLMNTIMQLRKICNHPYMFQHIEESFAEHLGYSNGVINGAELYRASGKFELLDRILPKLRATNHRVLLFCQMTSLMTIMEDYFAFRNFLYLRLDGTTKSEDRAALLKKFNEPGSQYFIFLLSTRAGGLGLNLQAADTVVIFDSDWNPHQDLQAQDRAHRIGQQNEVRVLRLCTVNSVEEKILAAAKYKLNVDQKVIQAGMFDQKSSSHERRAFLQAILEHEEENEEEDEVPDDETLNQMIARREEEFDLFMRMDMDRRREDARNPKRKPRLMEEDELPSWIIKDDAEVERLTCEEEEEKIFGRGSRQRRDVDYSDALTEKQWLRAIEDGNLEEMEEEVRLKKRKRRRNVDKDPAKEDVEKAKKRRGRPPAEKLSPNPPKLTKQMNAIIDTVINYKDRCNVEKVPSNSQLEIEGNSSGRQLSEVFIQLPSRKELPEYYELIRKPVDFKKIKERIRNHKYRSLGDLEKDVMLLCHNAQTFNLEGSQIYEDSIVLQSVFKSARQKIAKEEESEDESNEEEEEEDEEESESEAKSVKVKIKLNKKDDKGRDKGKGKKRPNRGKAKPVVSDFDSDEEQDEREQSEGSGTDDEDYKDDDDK

SMARCA2 = molecular target: T2, SMARCA2 (Homo sapiens, UniProt P51531); assay: SMARCA2 FRET nucleosome remodeling activity assay; assay type: biochemical
T2 construct: FLAG tag (YKDDDDK) (C); made in house; host or cells: Sf21 insect cells (baculovirus, pFastBacI)
T2 sequence (P51531 with tags, fused parts or gaps): as above
Description: The SMARCA2 remodeling assay was initiated by the addition of 2 uL of a nucleosome remodeling assay substrate and ATP mixture (final volume=10 uL). […] The assays were terminated after 15 minutes by the addition of 2 uL EDTA (final concentration of 25 mM). The SMARCA2 remodeling activity was determined by measuring the fluorescence ratio of the Cy3 and Cy5 labels ([…]). The remodeling of the nucleosome substrate causes an increase in the spacing between the Cy3 and Cy5 labels and therefore a reduction in FRET and an increase in Cy3/Cy5 fluorescence ratio.

FL-SMARCA4 = FL-SMARCA4 (Homo sapiens, UniProt P51532); assay: SMARCA4 ATPase activity assay (ADP-Glo, chicken mononucleosome substrate)
Chain of FL-SMARCA4 (P51532 whole entry): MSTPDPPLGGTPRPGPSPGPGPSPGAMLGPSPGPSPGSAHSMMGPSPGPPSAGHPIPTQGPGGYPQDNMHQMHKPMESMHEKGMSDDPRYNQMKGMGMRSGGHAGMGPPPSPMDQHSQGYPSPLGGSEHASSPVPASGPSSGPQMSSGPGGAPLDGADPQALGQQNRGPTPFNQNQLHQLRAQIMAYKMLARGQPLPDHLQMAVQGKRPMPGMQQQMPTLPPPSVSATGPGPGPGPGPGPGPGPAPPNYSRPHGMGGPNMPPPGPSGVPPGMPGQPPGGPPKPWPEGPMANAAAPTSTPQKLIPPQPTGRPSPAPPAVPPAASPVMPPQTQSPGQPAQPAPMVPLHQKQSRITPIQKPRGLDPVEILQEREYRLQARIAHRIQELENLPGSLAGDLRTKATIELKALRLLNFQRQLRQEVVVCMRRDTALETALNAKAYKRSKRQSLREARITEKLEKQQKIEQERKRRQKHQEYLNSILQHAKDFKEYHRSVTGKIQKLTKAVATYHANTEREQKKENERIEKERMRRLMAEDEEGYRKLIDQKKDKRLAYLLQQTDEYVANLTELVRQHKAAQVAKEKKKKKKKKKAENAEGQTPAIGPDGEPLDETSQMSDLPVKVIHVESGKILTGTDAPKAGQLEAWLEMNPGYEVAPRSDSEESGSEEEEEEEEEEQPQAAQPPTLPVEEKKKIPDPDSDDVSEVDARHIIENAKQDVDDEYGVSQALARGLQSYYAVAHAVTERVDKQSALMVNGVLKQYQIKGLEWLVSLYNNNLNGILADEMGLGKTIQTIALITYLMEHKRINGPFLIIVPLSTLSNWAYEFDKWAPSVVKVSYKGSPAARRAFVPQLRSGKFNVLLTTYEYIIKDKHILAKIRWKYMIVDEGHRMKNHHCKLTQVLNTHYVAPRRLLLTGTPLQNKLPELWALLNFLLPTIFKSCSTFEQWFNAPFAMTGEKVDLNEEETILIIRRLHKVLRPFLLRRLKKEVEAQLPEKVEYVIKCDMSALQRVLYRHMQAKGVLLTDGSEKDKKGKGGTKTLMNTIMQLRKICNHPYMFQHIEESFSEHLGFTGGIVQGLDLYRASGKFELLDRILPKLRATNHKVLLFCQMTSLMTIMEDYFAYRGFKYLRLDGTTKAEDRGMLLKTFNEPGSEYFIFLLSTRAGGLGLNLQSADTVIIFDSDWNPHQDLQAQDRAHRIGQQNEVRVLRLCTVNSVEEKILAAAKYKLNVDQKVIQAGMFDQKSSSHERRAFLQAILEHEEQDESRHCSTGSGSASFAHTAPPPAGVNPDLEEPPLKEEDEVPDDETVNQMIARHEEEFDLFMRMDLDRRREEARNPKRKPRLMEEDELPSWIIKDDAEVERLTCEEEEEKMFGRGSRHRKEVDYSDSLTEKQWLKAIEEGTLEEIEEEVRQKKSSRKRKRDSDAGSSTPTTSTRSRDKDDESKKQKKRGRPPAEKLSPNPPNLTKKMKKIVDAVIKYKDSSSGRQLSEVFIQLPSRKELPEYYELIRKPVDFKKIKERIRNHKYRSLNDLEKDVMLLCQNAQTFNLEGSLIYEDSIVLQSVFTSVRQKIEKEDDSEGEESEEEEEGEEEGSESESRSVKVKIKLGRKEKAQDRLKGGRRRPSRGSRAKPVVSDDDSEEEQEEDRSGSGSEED

A549 cells [3] = assay: Long term proliferation (LTP) assay, day 15 IC50 in A549 cells; assay type: cell-based; conditions: Homo sapiens, 360 h
H358 cells = assay: High-throughput proliferation (HTP) assay for H358 cells (CellTiter-Glo, 7 days); assay type: cell-based; conditions: Homo sapiens, NCI-H358, 168 h, read-out: H358 SMARCA2 IC50
Method in brief: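 Cells were plated at 1,000 cells/well in RPMI 1640 + 10% HI-FBS + 1% pen/strep on pre-dispensed compound and incubated 7 days at 37 °C, 5% CO2. Viability was read as ATP luminescence with CellTiter-Glo after 30 min at RT. DMSO served as 0% and 10 µM doxorubicin as 100% inhibition for EC50/IC50.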

[4] = FL-SMARCA4 IC50, Table 3.2, ATPase assay, enzyme 5 nM, ATP 250 uM, chicken mononucleosome 10 nM, 30 min preincubation
[5] = Table 3d.1, read-out: FL-SMARCA2 IC>50
[6] = FL-SMARCA4 IC>50, Table 3c.2, ATPase assay, enzyme 5 nM, ATP 250 uM, chicken mononucleosome 10 nM, 30 min preincubation

IC50 (A549 cells [1]) [µM] | IC50 ([2]; Table 3.1) [µM] | IC50 (SMARCA2) [µM] | IC50 (FL-SMARCA4; [4]) [µM] | IC50 (H358 cells) [µM] | other results | SMILES
≥ 20 | 0.0127 | 0.0222 | – | – | – | N#Cc1ncc(C(=O)Nc2cc(Cl)c(=O)n(CCF)c2)s1 [Compound 148]
– | 0.0349 | – | 0.137 | – | IC50 (A549 cells [3]): 0.282 µM | O=C(Nc1cc(F)c(=O)n(CCF)c1)c1cc(F)c(C(F)F)s1 [Compound 324]
– | 0.0355 | – | 0.163 | – | IC50 (A549 cells [3]): 0.312 µM | O=C(Nc1cc(F)c(=O)n(CC(F)F)c1)c1cc(F)c(C(F)F)s1 [Compound 325]
11.5 | 0.209 | – | 0.758 | – | IC50 (A549 cells [3]): 6.25 µM | O=C(Nc1ccc(=O)n(CCF)c1)c1cc(Cl)c(Cl)s1 [Compound 80]
0.597 | 0.0382 | 0.0181 | 0.181 | – | – | N#Cc1cc(C(=O)Nc2cc(F)c(=O)n(CCF)c2)sc1Cl [Compound 196]
0.313 | 0.0192 | – | 0.0683 | – | IC50 (A549 cells [3]): 0.106 µM | O=C(Nc1cc(F)c(=O)n(CC(F)F)c1)c1cc(F)c(Cl)s1 [Compound 323]
– | 1.26 | – | – | – | IC50 (A549 cells [3]): 15.2 µM | CCn1cc(NC(=O)c2cc(Cl)c(Cl)s2)ccc1=O [Compound 43]
– | > 50 | – | – | – | IC50 (A549 cells [3]): ≥ 30 µM | Cn1c(C(=O)Nc2ccc(=O)n(-c3ccccc3)c2)cc(Cl)c1Cl [Compound 47]
– | 0.0577 | 0.0288 | 0.184 | – | – | CCn1cc(NC(=O)c2cnc(C#N)s2)cc(Cl)c1=O [Compound 136]
– | 3.01 | 5.06 | 12 | – | – | O=C(Nc1ccc(=O)n(CC(F)(F)F)c1)c1cc(Cl)n[nH]1 [Compound 145]
9.69 | 0.00909 | 0.0234 | 0.0337 | – | – | N#Cc1cc(C(=O)Nc2cc(F)c(=O)n(CCF)c2)sc1C#N [Compound 189]
– | 0.136 | 0.407 | 0.68 | – | – | O=C(Nc1cc(F)c(=O)n(CCF)c1)c1cc(Cl)c(C(F)F)s1 [Compound 290]
– | 0.245 | 1.27 | 1.17 | – | – | Cn1c(C(=O)Nc2cc(F)c(=O)n(CC(F)(F)F)c2)cc(Cl)c1Cl [Compound 144]
– | 0.0787 | 0.223 | 0.161 | – | – | CCn1cc(NC(=O)c2cc(Cl)c(C#N)s2)cc(F)c1=O [Compound 128]
– | 0.173 | 0.499 | 0.736 | – | – | O=C(Nc1cc(F)c(=O)n(CCF)c1)c1cnc(C(F)F)s1 [Compound 295]
1.25 | 0.0467 | 0.089 | 0.147 | – | – | N#Cc1sc(C(=O)Nc2cc(F)c(=O)n(CC(F)(F)F)c2)cc1Cl [Compound 140]
– | 0.0204 | 0.0288 | 0.0674 | – | – | N#Cc1ncc(C(=O)Nc2cc(F)c(=O)n(CC(F)(F)F)c2)s1 [Compound 151, 2-Cyano-N-(5-fluoro-6-oxo-1-(2,2,2-trifluoroethyl)-1,6-dihydropyridin-3-yl)thiazole-5-carboxamide]
– | > 50 | – | > 50 | – | IC50 (A549 cells [3]): ≥ 10 µM | N#Cc1ncc(C(=O)Nc2cc(F)c(=O)n(CC(F)(F)F)c2)o1 [Compound 267]
2.46 | 0.0511 | – | 0.228 | – | IC50 (A549 cells [3]): 0.177 µM | O=C(Nc1cc(F)c(=O)n(CCF)c1)c1cc(F)c(F)s1 [Compound 259]
0.904 | 0.0512 | 0.114 | 0.196 | – | – | O=C(Nc1cc(F)c(=O)n(CCF)c1)c1cc(Cl)c(Cl)s1 [Compound 129]
– | 0.0941 | 0.399 | 0.352 | – | – | O=C(Nc1cc(F)c(=O)n(CC(F)(F)F)c1)c1cc(Cl)c(Cl)s1 [Compound 141]
– | 0.121 | 0.168 | 0.331 | – | – | O=C(Nc1cc(F)c(=O)n(CC(F)(F)F)c1)c1cnc(Cl)s1 [Compound 143]
0.934 | 0.0272 | 0.00922 | 0.0868 | – | – | N#Cc1sc(C(=O)Nc2cc(F)c(=O)n(CC(F)F)c2)cc1Cl [Compound 285]

IC50 (A549 cells [1]) [µM] | IC50 ([2]; Table 3.1) [µM] | IC50 (SMARCA2) [µM] | IC50 (FL-SMARCA4; [4]) [µM] | IC50 (H358 cells) [µM] | other results | SMILES
– | 0.0266 | 0.0217 | 0.0948 | – | – | CCn1cc(NC(=O)c2cnc(C#N)s2)cc(F)c1=O [Compound 150]
– | 1.02 | 2.57 | 3.59 | – | – | CCn1cc(NC(=O)c2cc(Cl)n[nH]2)cc(Cl)c1=O [Compound 146]
– | – | – | – | – | IC50 (FL-SMARCA4; FL-SMARCA4 IC50): > 50 µM; IC50 [2, 5]: > 50 µM; IC50 (A549 cells [3]): ≥ 30 µM | CCn1cc(NC(=O)c2cc(Cl)c(Cl)s2)ncc1=O [Compound 18d]
– | 0.026 | 0.029 | 0.111 | – | – | N#Cc1ncc(C(=O)Nc2cc(Cl)c(=O)n(CC(F)(F)F)c2)s1 [Compound 137]
4.01 | – | – | – | > 10 | IC50 (FL-SMARCA4; [6]): 0.957 µM; IC50 ([2]; Table 3c.1): 0.235 µM | O=C(Nc1cc(F)c(=O)n(CC(F)F)c1)c1cc(C#Cc2csc(C(F)(F)F)n2)c(Cl)s1 [Compound 126c]
4.73 | – | – | – | > 10 | IC50 (FL-SMARCA4; FL-SMARCA4 IC50): 8.09 µM; IC50 [2, 5]: 1.36 µM | Cc1cc(NC(=O)c2cc(Cl)c(C(F)(F)F)s2)cn(CC(F)F)c1=O [Compound 82d]
> 10 | – | – | – | > 10 | IC50 (FL-SMARCA4; FL-SMARCA4 IC50): 3.97 µM; IC50 [2, 5]: 0.576 µM | N#Cc1cc(C(=O)Nc2cc(O)c(=O)n(CC(F)F)c2)sc1C(F)(F)F [Compound 88d]
1.95 | – | – | – | > 10 | IC50 (FL-SMARCA4; [6]): 0.0265 µM; IC50 ([2]; Table 3c.1): 0.0105 µM | NC(=O)c1nc(C#Cc2cc(C(=O)Nc3cc(F)c(=O)n(CC(F)F)c3)sc2Cl)cs1 [Compound 111c]
4.35 | – | – | – | 6.25 | IC50 (FL-SMARCA4; FL-SMARCA4 IC50): 0.00853 µM; IC50 [2, 5]: 0.00606 µM | N#Cc1ncc(C#Cc2cc(C(=O)Nc3cc(F)c(=O)n(CC(F)F)c3)sc2Cl)o1 [Compound 100d]
> 10 | – | – | – | > 10 | IC50 (FL-SMARCA4; FL-SMARCA4 IC50): 10.2 µM; IC50 [2, 5]: 1.31 µM | N#Cc1cc(C(=O)Nc2cc(C(F)F)c(=O)n(CC(F)F)c2)sc1C(F)(F)F [Compound 76d]
> 10 | – | – | – | > 10 | IC50 (FL-SMARCA4; [6]): 16.1 µM; IC50 ([2]; Table 3c.1): 8.03 µM | CN(C)Cc1cc(C#Cc2cc(C(=O)Nc3cc(F)c(=O)n(CC(F)F)c3)sc2Cl)n(C)n1 [Compound 149c]
> 10 | – | – | – | > 10 | IC50 (FL-SMARCA4; FL-SMARCA4 IC50): 1.58 µM; IC50 [2, 5]: 0.52 µM | O=C(Nc1cc(F)c(=O)n(CC(F)F)c1)c1cc(C#CCn2cccn2)c(Cl)s1 [Compound 123d]
1.78 | – | – | – | > 10 | IC50 (FL-SMARCA4; [6]): 0.0545 µM; IC50 ([2]; Table 3c.1): 0.02 µM | CC(=O)Nc1cccc(C#Cc2cc(C(=O)Nc3cc(F)c(=O)n(CC(F)F)c3)sc2Cl)c1 [Compound 75c]
> 10 | – | – | – | > 10 | IC50 (FL-SMARCA4; FL-SMARCA4 IC50): 0.246 µM; IC50 [2, 5]: 0.0926 µM | CNC(=O)c1cc(C#Cc2cc(C(=O)Nc3cc(F)c(=O)n(CC(F)F)c3)sc2Cl)on1 [Compound 55d]
– | 2.72 | 7.12 | 39.6 | – | – | CCn1cc(NC(=O)c2cc(Cl)c(Cl)n2C)ccc1=O [Compound 1]
> 10 | – | – | – | > 10 | IC50 (FL-SMARCA4; FL-SMARCA4 IC50): 5.1 µM; IC50 [2, 5]: 1.7 µM | NCCOCC#Cc1cc(C(=O)Nc2cc(F)c(=O)n(CC(F)F)c2)sc1Cl [Compound 111d]
4.33 | – | – | – | > 10 | IC50 (FL-SMARCA4; FL-SMARCA4 IC50): 0.655 µM; IC50 [2, 5]: 0.197 µM | COc1cncc(C#Cc2cc(C(=O)Nc3cc(F)c(=O)n(CC(F)F)c3)sc2Cl)c1 [Compound 61d]
2.41 | – | – | – | > 10 | IC50 (FL-SMARCA4; FL-SMARCA4 IC50): 0.205 µM; IC50 [2, 5]: 0.0725 µM | O=C(Nc1cc(F)c(=O)n(CC(F)F)c1)c1cc(C#CC2CCCOC2)c(Cl)s1 (stereo not shown) [Compound 68d]
> 10 | – | – | – | > 10 | IC50 (FL-SMARCA4; [6]): 0.807 µM; IC50 ([2]; Table 3c.1): 0.371 µM | Cn1cnc(C#Cc2cc(C(=O)Nc3cc(F)c(=O)n(CC(F)F)c3)sc2Cl)n1 [Compound 67c]
1.96 | – | – | – | 2.27 | IC50 (FL-SMARCA4; FL-SMARCA4 IC50): > 50 µM; IC50 [2, 5]: 22.4 µM | N#Cc1cc(C(=O)Nc2cc([N+](=O)[O-])c(=O)n(CC(F)F)c2)sc1C(F)(F)F [Compound 117d]
> 10 | – | – | – | > 10 | IC50 (FL-SMARCA4; [6]): 0.208 µM; IC50 ([2]; Table 3c.1): 0.0817 µM | O=C(Nc1cc(F)c(=O)n(CC(F)F)c1)c1cc(C#Cc2ccc3c(c2)C(=O)NC3)c(Cl)s1 [Compound 145c]
– | 0.113 | 0.171 | 0.303 | – | – | N#Cc1sc(C(=O)Nc2cc(Cl)c(=O)n(CC(F)(F)F)c2)cc1Cl [Compound 131]
